Test systems include UO-31; HCT-116; NCI-H460; SN12C; HT-29; SF-539; NCI-H23; SNB-75; SF-295; UACC-62; SR; RPMI-8226; HCT-15; HOP-92; SK-MEL-2; NCI-H522.
What all share (assay): NCI anticancer screen, dose series, 48 h

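Cultured in 96-well plates, cells were exposed to test compound for 48 hours across five concentrations. GI50 is the concentration that inhibits growth by half.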 Calls of active or inactive are those of the source. No stated cut-off is given here; in the data, active = GI50 up to about 1.1 µM and inactive = higher. Bounds are passed on as bounds.

For `CC1=CC(C)(c2c[nH]c3ccccc23)CC(C)(C)c2c1[nH]c1ccccc21` (stereo not given), the GI50 in the test with UO-31 is 13.2 µM (inactive); with HCT-116 it was 11.9 µM (inactive); in the test with NCI-H460 it was 17 µM (inactive); in the test with SN12C, 14.3 µM (inactive); with HT-29 it was 12.9 µM (inactive); with SF-539, 43.2 µM (inactive). The GI50 with NCI-H23 is 14.4 µM (inactive); in the test with SNB-75, 26.7 µM (inactive); in the test with SF-295, 14.5 µM (inactive); in the test with UACC-62 it was 15.2 µM (inactive); in the test on SR, 12.5 µM (inactive); in the test with RPMI-8226 it was 11.9 µM (inactive).

In the case of `O=C(CC1(O)C(=O)Nc2ccccc21)c1ccccc1O` (stereo not given), the GI50 is 91.6 µM (inactive) with UO-31; > 100 µM (inactive) in the test with HCT-116; > 100 µM (inactive) with NCI-H460; > 100 µM (inactive) with SN12C; > 100 µM (inactive) in the test with HT-29; > 100 µM (inactive) with SF-539. Besides, the GI50 in the test on NCI-H23 was > 100 µM (inactive); in the test on SNB-75 it was > 100 µM (inactive); in the test on SF-295 it was > 100 µM (inactive); with UACC-62 it was > 100 µM (inactive); in the test on HCT-15, > 100 µM; with HOP-92, > 100 µM (inactive). Moreover, the GI50 in the test with SK-MEL-2, in the test on NCI-H522 and with RPMI-8226 was > 100 µM (inactive) each time.

As to `O/N=C1/C(=C/c2ccccc2)CCCC1C(NO)c1ccccc1` (stereo not given), the GI50 was 57.1 µM (inactive) in the test on UO-31; 48.1 µM (inactive) in the test with HCT-116; 79.6 µM (inactive) in the test on NCI-H460; 69.8 µM (inactive) in the test with SN12C; > 100 µM (inactive) in the test with HT-29; > 100 µM (inactive) in the test on SF-539. For the same compound, the GI50 with NCI-H23 is 59.2 µM (inactive); in the test on SNB-75, > 100 µM (inactive); in the test with SF-295 it was 78.3 µM (inactive); in the test on UACC-62, 70.3 µM (inactive); in the test on HCT-15, > 100 µM; in the test with HOP-92, 33.3 µM (inactive). The GI50 with SK-MEL-2 was > 100 µM (inactive); with NCI-H522, 45.7 µM (inactive); in the test with RPMI-8226, 35.5 µM (inactive).

For `COc1ccc(C)cc1-c1cc(Sc2ccccc2)c(-c2cc(C)ccc2OC)o1`, the GI50 in the test on UO-31, in the test with HCT-116, with NCI-H460, in the test with SN12C, with HT-29 and in the test on SF-539 was > 31.6 µM (inactive) throughout. Further, the GI50 in the test on NCI-H23 is > 31.6 µM (inactive); in the test with SNB-75, > 31.6 µM (inactive); in the test with SF-295, > 100 µM (inactive); in the test with UACC-62, > 31.6 µM (inactive); with HCT-15, > 31.6 µM; with HOP-92 it was > 31.6 µM (inactive). Also, the GI50 in the test on SK-MEL-2 was > 10 µM (inactive); in the test on NCI-H522, > 31.6 µM (inactive); with RPMI-8226, > 31.6 µM (inactive).

With `COc1cc2cccc(/N=C/c3c(Br)ccc(OC)c3OC(C)C)c2cc1OC`, the GI50 in the test with UO-31 is 47.8 µM (inactive); in the test on HCT-116 it was 31 µM (inactive); in the test on NCI-H460, > 100 µM (inactive); with SN12C, > 100 µM (inactive); in the test with HT-29 it was 32.2 µM (inactive); with SF-539, 50.6 µM (inactive). The GI50 is 50.1 µM (inactive) with NCI-H23; 24.4 µM (inactive) in the test with SNB-75; 53.6 µM (inactive) in the test with SF-295; 45.7 µM (inactive) in the test with UACC-62; > 100 µM (inactive) in the test with SK-MEL-2; 30.5 µM (inactive) in the test with NCI-H522. In addition, the GI50 in the test on RPMI-8226 is 22.1 µM (inactive).

`O=C(OCc1ccccc1)N1N=NC2C1C1CC(OCc3ccccc3)(OCc3ccccc3)C2O1` (stereo not given): the GI50 in the test on UO-31, with NCI-H460, in the test on SN12C, in the test on HT-29, with SF-539 and with NCI-H23 was > 100 µM (inactive) throughout. Besides, the GI50 was > 100 µM (inactive) with SNB-75; > 100 µM (inactive) in the test on SF-295; > 100 µM (inactive) in the test with UACC-62; > 100 µM with HCT-15; > 100 µM (inactive) with HOP-92; > 100 µM (inactive) with SK-MEL-2. Besides, the GI50 with RPMI-8226 is > 100 µM (inactive).

Consider `C[C@]12CC/C(=N\OC(=O)Nc3ccccc3)C=C1CC[C@@H]1C2CC[C@@]2(C)C1CC[C@@H]2OC(=O)Nc1ccccc1` (stereo not given in full), for which the GI50 was > 100 µM (inactive) in the test with UO-31; > 100 µM (inactive) in the test with HCT-116; > 100 µM (inactive) with NCI-H460; 11.7 µM (inactive) with SN12C; > 100 µM (inactive) with HT-29; > 100 µM (inactive) in the test on SF-539. For the same compound, the GI50 in the test on NCI-H23 was 73.3 µM (inactive); with SNB-75, 31.5 µM (inactive); in the test on SF-295, 47.9 µM (inactive); in the test on UACC-62, 59 µM (inactive); in the test with HCT-15, 3.3 µM; in the test with HOP-92 it was > 100 µM (inactive). In addition, the values for the GI50 in the test with SK-MEL-2 and in the test with RPMI-8226 were > 100 µM (inactive) and 15.4 µM (inactive), respectively.

On to `O=S(=O)(N/N=C/c1cccc(Cl)c1Cl)c1ccccc1`, for which the GI50 was 94.4 µM (inactive) in the test on UO-31; 47 µM (inactive) in the test on HCT-116; > 100 µM (inactive) in the test with NCI-H460; 46 µM (inactive) with SN12C; 99.8 µM (inactive) in the test on HT-29; 80 µM (inactive) in the test on SF-539. Besides, the GI50 in the test with NCI-H23 is 45.6 µM (inactive); with SNB-75, 99.1 µM (inactive); with SF-295, 79.6 µM (inactive); in the test on UACC-62, > 100 µM (inactive); in the test on HCT-15 it was 98.2 µM; in the test on SR, 38.8 µM (inactive). The figures for the GI50 with HOP-92, with SK-MEL-2 and in the test with RPMI-8226 were 14.2 µM (inactive), 58.6 µM (inactive) and 66.2 µM (inactive), respectively.

With `CC1(Sc2ccccc2)CN(Cc2ccccc2)C1=O` (stereo not given), the GI50 with UO-31 is 22.8 µM (inactive); with HCT-116, 60 µM (inactive); in the test with NCI-H460, > 100 µM (inactive); with SN12C, > 100 µM (inactive); with HT-29 it was > 100 µM (inactive); in the test with SF-539, > 100 µM (inactive). Moreover, the GI50 with NCI-H23 was > 100 µM (inactive); in the test with SNB-75, 39.6 µM (inactive); with SF-295 it was > 100 µM (inactive); with UACC-62 it was > 100 µM (inactive); in the test with HCT-15 it was 75.2 µM; with HOP-92, 20.5 µM (inactive). The GI50 is > 100 µM (inactive) in the test with SK-MEL-2, 60.3 µM (inactive) with NCI-H522 and 57.3 µM (inactive) in the test on RPMI-8226.

As for `Cc1cc(N(CCC#N)CCC#N)ccc1/C=N\c1ccc(C(=O)NN2C(=O)/C(=C/c3ccc(N(CCC#N)CCC#N)cc3)N=C2c2cc([N+](=O)[O-])ccc2Cl)cc1`, the GI50 was > 100 µM (inactive) in the test with UO-31; > 100 µM (inactive) in the test with HCT-116; > 100 µM (inactive) in the test on NCI-H460; > 100 µM (inactive) with SN12C; 80.5 µM (inactive) in the test with HT-29; > 100 µM (inactive) in the test on SF-539. The GI50 in the test with NCI-H23 was > 100 µM (inactive); in the test with SNB-75, > 100 µM (inactive); in the test with UACC-62, 42.5 µM (inactive); in the test with HCT-15 it was 51.8 µM; in the test on HOP-92, > 100 µM (inactive); in the test on SK-MEL-2, > 100 µM (inactive). Besides, the GI50 in the test on RPMI-8226 is > 100 µM (inactive).

For the origin of these results see ChEMBL document CHEMBL1201862, “PubChem BioAssay data set” (2004).
